Reference: paper PMC3525188, “Assessment of Anticholinesterase Activity of Gelidiella acerosa: Implications for Its Therapeutic Potential against Alzheimer's Disease” (Evidence-based Complementary and Alternative Medicine : eCAM, 2012)

How the values were obtained:
[1] = biological target: T1, horse serum BuChE (EC 3.1.1.8) (Equus caballus, UniProt P81908); assay: Ellman assay, Lineweaver-Burk plot, EZ-Fit; type: biochemical; details: control without extract, 0.05 M Tris-HCl pH 8.0, RT; unreliable (printed unit nM implausible beside mM substrate)
T1 construct: gene BCHE; commercial native enzyme from horse serum, Sigma
T1 sequence (P81908 whole entry): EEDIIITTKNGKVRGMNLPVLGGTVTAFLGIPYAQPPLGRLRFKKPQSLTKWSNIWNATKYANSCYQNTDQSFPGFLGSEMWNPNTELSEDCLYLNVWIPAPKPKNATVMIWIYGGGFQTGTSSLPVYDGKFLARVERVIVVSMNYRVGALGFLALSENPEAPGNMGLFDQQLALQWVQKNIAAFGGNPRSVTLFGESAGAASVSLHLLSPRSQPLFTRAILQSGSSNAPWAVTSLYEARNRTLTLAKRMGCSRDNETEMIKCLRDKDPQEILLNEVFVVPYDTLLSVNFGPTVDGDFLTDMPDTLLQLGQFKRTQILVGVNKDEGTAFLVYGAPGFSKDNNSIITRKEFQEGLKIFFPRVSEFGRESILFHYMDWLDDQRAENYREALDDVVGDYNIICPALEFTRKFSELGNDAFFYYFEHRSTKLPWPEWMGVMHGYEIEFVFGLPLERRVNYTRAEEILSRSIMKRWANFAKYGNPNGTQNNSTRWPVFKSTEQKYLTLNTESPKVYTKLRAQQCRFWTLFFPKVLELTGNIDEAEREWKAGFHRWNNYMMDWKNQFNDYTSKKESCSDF
Source text: Ellman assay, Lineweaver-Burk plot, EZ-Fit on horse serum BuChE (EC 3.1.1.8)

[2] = biological target: T2, Electric eel AChE (Type-VI-S, EC 3.1.1.7) (Electrophorus electricus, UniProt O42275); assay: Ellman assay, Lineweaver-Burk plot, EZ-Fit; type: biochemical; details: control without extract, 0.05 M Tris-HCl pH 8.0, RT; unreliable (printed unit nM implausible beside mM substrate)
T2 construct: commercial native enzyme, Sigma Type VI-S
T2 sequence (O42275 24-633): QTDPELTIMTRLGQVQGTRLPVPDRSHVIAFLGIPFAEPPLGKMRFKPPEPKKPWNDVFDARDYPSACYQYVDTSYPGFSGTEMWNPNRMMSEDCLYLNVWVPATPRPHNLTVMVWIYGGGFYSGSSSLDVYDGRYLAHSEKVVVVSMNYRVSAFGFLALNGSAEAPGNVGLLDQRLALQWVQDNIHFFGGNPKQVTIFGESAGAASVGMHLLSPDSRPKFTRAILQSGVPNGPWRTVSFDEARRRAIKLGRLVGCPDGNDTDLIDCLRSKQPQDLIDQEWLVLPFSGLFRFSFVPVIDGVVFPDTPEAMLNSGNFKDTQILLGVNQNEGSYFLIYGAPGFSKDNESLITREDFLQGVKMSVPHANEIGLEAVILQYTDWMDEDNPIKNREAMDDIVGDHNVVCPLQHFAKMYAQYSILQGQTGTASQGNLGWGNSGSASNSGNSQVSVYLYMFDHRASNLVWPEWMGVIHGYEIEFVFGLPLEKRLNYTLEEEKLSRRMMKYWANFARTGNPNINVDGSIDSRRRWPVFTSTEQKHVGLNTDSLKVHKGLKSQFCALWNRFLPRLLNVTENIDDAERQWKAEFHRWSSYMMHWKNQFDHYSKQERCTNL
Source text: Ellman assay, Lineweaver-Burk plot, EZ-Fit on Electric eel AChE (Type-VI-S, EC 3.1.1.7)

CCCC(=O)SCC[N+](C)(C)C [butyrylthiocholine iodide]
BuChE / Control [1]: 3.12 ± 0.87 nM

CC(=O)SCC[N+](C)(C)C [acetylthiocholine iodide]
AChE / Control [2]: 0.8774 ± 0.41 nM
